Like-named read-outs stand apart in the source and are kept apart here.
How the values were obtained:
[1] = test system: NCI-H929; test: Cytostatic activity on human multiple myeloma cell line NCI-H929 (WST-1); type: cell-based; conditions: for inhibition at 1 µM / inhibition at 10 µM: Homo sapiens, NCI-H929, 72 h; for inhibition at 1 µM: read-out: cytostatic rate (%) H929 (1 μmol/L); for inhibition at 10 µM: 10 μmol/L, read-out: cytostatic rate (%) H929 (10 μmol/L)
Method in brief: (§1)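 Cells pre-cultured 24 h at 37 °C, 5% CO2, then exposed 72 h to compound at final 1 or 10 μmol/L (0.1% DMSO). WST-1 added for 2 h, absorbance at 450 nm (ref 690 nm). Cytostatic rate = 100 minus relative growth, with DMSO control as 100% and blank as 0%.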

[2] = test system: KMS-11; test: Cytostatic activity on human multiple myeloma cell line KMS-11 (WST-1); type: cell-based; conditions: for inhibition at 1 µM / inhibition at 10 µM: Homo sapiens, KMS-11, 72 h; for inhibition at 1 µM: read-out: cytostatic rate (%) KMS-11 (1 μmol/L); for inhibition at 10 µM: 10 μmol/L, read-out: cytostatic rate (%) KMS-11 (10 μmol/L)
Method in brief: as §1

[3] = biological target: T1, IGF-1R (Homo sapiens, UniProt P08069); test: IGF-1R inhibitory activity (kinase reaction, time-resolved fluoroimmunoassay); type: biochemical; conditions: test compound 10 μmol/L
T1 construct: purchased Upstate Co. 14-465
Method in brief: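 Compounds were tested at a single 10 μmol/L concentration. Each was incubated with recombinant IGF-1R (200 μg/L), 10 mmol/L ATP, MgCl2/MnCl2 and Na3VO4 (pH 7.5) on immobilized poly(Glu-Tyr) peptide for 30 min at 24° C. Eu-anti-phosphotyrosine time-resolved fluorescence (340/615 nm) gave relative activity against no-compound and no-enzyme wells, reported as % inhibition.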

[4] = IGF-1R active recombinant enzyme
[5] = NCI-H929 cells, test compound 1 μmol/L, WST-1
[6] = KMS-11 cells, test compound 1 μmol/L, WST-1

T1 sequence (P08069 959-1367 limits assumed): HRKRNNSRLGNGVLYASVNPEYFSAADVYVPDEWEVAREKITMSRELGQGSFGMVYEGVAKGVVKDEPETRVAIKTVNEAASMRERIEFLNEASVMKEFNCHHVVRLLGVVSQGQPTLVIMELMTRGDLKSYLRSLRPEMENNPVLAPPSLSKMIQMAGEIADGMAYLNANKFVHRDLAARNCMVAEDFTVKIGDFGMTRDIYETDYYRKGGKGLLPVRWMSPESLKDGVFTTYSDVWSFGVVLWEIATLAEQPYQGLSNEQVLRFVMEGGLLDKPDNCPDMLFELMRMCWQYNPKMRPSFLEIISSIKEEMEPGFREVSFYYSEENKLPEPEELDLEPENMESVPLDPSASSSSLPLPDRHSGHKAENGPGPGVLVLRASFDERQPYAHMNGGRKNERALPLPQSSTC

Row | SMILES | inhibition at 1 µM ([1]; 1 μmol/L, 72 hours) | inhibition at 1 µM ([2]; 1 μmol/L, 72 hours) | inhibition at 10 µM [3, 4] | inhibition at 10 µM ([1]; 72 hours) | inhibition at 10 µM ([2]; 72 hours) | other results
1 | COc1c(OCCN2CCC(O)CC2)ccc(/C=C/c2n[nH]c3ccccc23)c1NC(=O)c1sccc1C [Compound 349, (E)-{3-[2-(4-hydroxypiperidin-1-yl)ethoxy]-6-[2-(1H-indazol-3-yl)vinyl]-2-methoxyphenyl}-3-methylthiophene-2-carboxamide] | – | – | – | – | – | cytostatic rate (%) H929 (1 μmol/L) ([1]; 1 μmol/L, 72 hours): 116.3%; cytostatic rate (%) KMS-11 (1 μmol/L) ([2]; 1 μmol/L, 72 hours): 117.2%; inhibitory activity (%) at 10 μmol/L [3, 4]: 101.9%
2 | CNC1CCN(C(=O)c2ccc(/C=C/c3n[nH]c4ccccc34)c(NC(=O)c3sccc3C)c2)C1 (stereo not drawn) [Compound 283, (E)-N-{2-[2-(1H-indazol-3-yl)vinyl]-5-[3-(methylamino)pyrrolidin-1-ylcarbonyl]phenyl}-3-methylthiophene-2-carboxamide] | 128% | 116% | 101% | – | – | –
3 | CC(=O)Nc1ccc(C(=O)Nc2ccccc2/C=C/c2n[nH]c3ccccc23)s1 [Compound 68, (E)-5-acetylamino-N-{2-[2-(1H-indazol-3-yl)vinyl]phenyl}thiophene-2-carboxamide] | – | – | 97.4% | 114% | 112% | –
4 | Cc1cc([N+](=O)[O-])sc1C(=O)Nc1ccccc1/C=C/c1n[nH]c2ccccc12 [Compound 66, (E)-N-{2-[2-(1H-indazol-3-yl)vinyl]phenyl}-3-methyl-5-nitrothiophene-2-carboxamide] | – | – | 93.6% | 111% | 114% | –
5 | COc1c(OCCCN2CCC(O)CC2)ccc(/C=C/c2n[nH]c3ccccc23)c1NC(=O)c1sccc1C [Compound 344, (E)-N-{3-[3-(4-hydroxypiperidin-1-yl)propoxy]-6-[2-(1H-indazol-3-yl)vinyl]-2-methoxyphenyl}-3-methylthiophene-2-carboxamide] | – | – | 97.4% | – | – | inhibition at 1 µM [1, 5]: 133%; inhibition at 1 µM [2, 6]: 117%
6 | O=C(Nc1ccccc1/C=C/c1n[nH]c2ccccc12)c1ccccn1 [Compound 12, (E)-N-{2-[2-(1H-indazol-3-yl)vinyl]phenyl}pyridine-2-carboxamide] | – | – | 96.1% | 118% | 120% | –
7 | Cc1ccsc1C(=O)Nc1cc(N(C)CCO)ccc1/C=C/c1n[nH]c2ccccc12 [Compound 280] | – | – | – | – | – | cytostatic rate (%) H929 (1 μmol/L) ([1]; 1 μmol/L, 72 hours): 112.2%; cytostatic rate (%) KMS-11 (1 μmol/L) ([2]; 1 μmol/L, 72 hours): 109.0%; inhibitory activity (%) at 10 μmol/L [3, 4]: 97.6%
8 | Cc1ccsc1C(=O)Nc1cc(C(=O)NC2CC2)ccc1/C=C/c1n[nH]c2ccccc12 [Compound 118, (E)-N-{5-(N-cyclopropylcarbamoyl)-2-[2-(1H-indazol-3-yl)vinyl]phenyl}-3-methylthiophene-2-carboxamide] | – | – | – | 116% | 114% | inhibition at 10 µM [3]: 102%
9 | COc1c(OCCCN2CC[C@@H](N)C2)ccc(/C=C/c2n[nH]c3ccccc23)c1NC(=O)c1sccc1C [Compound 346, (R)-(E)-N-{3-[3-(3-aminopyrrolidin-1-yl)propoxy]-6-[2-(1H-indazol-3-yl)vinyl]-2-methoxyphenyl}-3-methylthiophene-2-carboxamide] | 114% | 97.2% | 114% | – | – | –
10 | O=C(NCc1cccs1)c1ccccc1/C=C/c1n[nH]c2ccccc12 [Compound 141, (E)-2-[2-(1H-indazol-3-yl)vinyl]-N-(thiophen-2-ylmethyl)benzamide] | – | – | 97.1% | 114% | 117% | –
11 | Cc1c(Br)csc1C(=O)Nc1ccccc1/C=C/c1n[nH]c2ccccc12 [Compound 353, (E)-N-{2-[2-(1H-indazol-3-yl)vinyl]phenyl}-4-bromo-3-methylthiophene-2-carboxamide] | 104% | 77.4% | 102% | – | – | –
12 | COc1c(OCCCN2CCC(CO)CC2)ccc(/C=C/c2n[nH]c3ccccc23)c1NC(=O)c1sccc1C [Compound 350, (E)-N-(3-{3-[4-(hydroxymethyl)piperidin-1-yl]propoxy}-6-[2-(1H-indazol-3-yl)vinyl]-2-methoxyphenyl)-3-methylthiophene-2-carboxamide] | 117% | 117% | 111% | – | – | –
13 | Cc1ccsc1C(=O)Nc1cc(C(=O)N2CCC(N)CC2)ccc1/C=C/c1n[nH]c2ccccc12 [Compound 111, (E)-N-{5-(4-aminopiperidin-1-ylcarbonyl)-2-[2-(1H-indazol-3-yl)vinyl]phenyl}-3-methylthiophene-2-carboxamide] | – | – | – | 120% | 112% | inhibition at 10 µM [3]: 98.1%
14 | CON(C)C(=O)c1ccc(/C=C/c2n[nH]c3ccccc23)c(NC(=O)c2sccc2C)c1 [Compound 320, (E)-{2-[2-(1H-indazol-3-yl)vinyl]-5-(N-methoxy N-methylcarbamoyl)phenyl}-3-methyl-2-carboxamide] | – | – | – | – | – | cytostatic rate (%) H929 (1 μmol/L) [1, 5]: 122.8%; cytostatic rate (%) KMS-11 (1 μmol/L) [2, 6]: 112.1%; inhibitory activity (%) at 10 μmol/L [3, 4]: 102.1%
15 | Cc1ccsc1C(=O)Nc1cc(F)ccc1/C=C/c1n[nH]c2ccccc12 [Compound 265, (E)-N-{5-fluoro-2-[2-(1H-indazol-3-yl)vinyl]phenyl}-3-methylthiophene-2-carboxamide] | 115% | 96.9% | 98.4% | – | – | –
16 | O=C(Nc1ccccc1/C=C/c1n[nH]c2ccccc12)c1ccncc1 [Compound 10, (E)-N-{2-[2-(1H-indazol-3-yl)vinyl]phenyl}isonicotinamide] | – | – | 99.1% | 113% | 102% | –
17 | COCCN(C)CCCOc1cc(NC(=O)c2sccc2C)c(/C=C/c2n[nH]c3ccccc23)cc1OC [Compound 298, (E)-N-{2-[2-(1H-indazol-3-yl)vinyl]-4-methoxy-5-{3-[N-(2-methoxyethyl)methylamino]propyloxy}phenyl}-3-methylthiophene-2-carboxamide] | 117% | 110% | 94.2% | – | – | –
18 | O=C(CCc1cccs1)Nc1ccccc1/C=C/c1n[nH]c2ccccc12 [Compound 39, (E)-N-{2-[2-(1H-indazol-3-yl)vinyl]phenyl}-3-(thiophen-2-yl)propionamide] | – | – | 59.1% | 68.8% | 91% | –
19 | O=C1c2ccccc2CN1c1ccccc1/C=C/c1n[nH]c2ccccc12 [Compound 213, (E)-2-{2-[2-(1H-indazol-3-yl)vinyl]phenyl}-2,3-dihydroisoindole-1-one] | – | – | 99% | 127% | 121% | –
20 | Cn1cc([N+](=O)[O-])cc1C(=O)Nc1ccccc1/C=C/c1n[nH]c2ccccc12 [Compound 52, (E)-N-{2-[2-(1H-indazol-3-yl)vinyl]phenyl}-1-methyl-4-nitro-1H-pyrrole-2-carboxamide] | – | – | 98.5% | 119% | 128% | –
21 | Cc1ncsc1C(=O)Nc1ccccc1/C=C/c1n[nH]c2ccccc12 [Compound 174, (E)-N-{2-[2-(1H-indazol-3-yl)vinyl]phenyl}-4-methylthiazole-5-carboxamide] | – | – | 103% | 109% | 82.6% | –
22 | CN(C)c1ccc(/C=C/c2n[nH]c3ccccc23)c(NC(=O)c2cccn2C)c1 [Compound 107, (E)-N-{5-dimethylamino-2-[2-(1H-indazol-3-yl)vinyl]phenyl}-1-methyl-1H-pyrrole-2-carboxamide] | – | – | – | 119% | 119% | inhibition at 10 µM [3]: 92.8%
23 | Cc1ccsc1C(=O)Nc1cc(C(=O)NCCN2CCOCC2)ccc1/C=C/c1n[nH]c2ccccc12 [Compound 282, (E)-N-(2-[2-(1H-indazol-3-yl)vinyl]-5-{N-[2-(morpholin-4-yl)ethyl]carbamoyl}phenyl)-3-methylthiophene-2-carboxamide] | 130% | 123% | 99.2% | – | – | –
24 | Cc1ccsc1C(=O)Nc1cc(C(=O)N(C)C2CCNCC2)ccc1/C=C/c1n[nH]c2ccccc12 [Compound 297, (E)-N-{2-[2-(1H-indazol-3-yl)vinyl]-5-[N-methyl-N-(piperidine-4-yl)carbamoyl]phenyl}-3-methylthiophene-2-carboxamide] | 116% | 94.5% | 101% | – | – | –
25 | Cc1cc(N)sc1C(=O)Nc1ccccc1/C=C/c1n[nH]c2ccccc12 [Compound 67, (E)-5-amino-N-{2-[2-(1H-indazol-3-yl)vinyl]phenyl}-3-methylthiophene-2-carboxamide] | – | – | 95.6% | 119% | 100% | –
26 | CC(=O)N1CCN(C(=O)c2ccc(/C=C/c3n[nH]c4ccccc34)c(NC(=O)c3cc4ccccc4s3)c2)CC1 [Compound 90, (E)-N-{5-(4-acetylpiperazin-1-ylcarbonyl)-2-[2-(1H-indazol-3-yl)vinyl]phenyl}benzo[b]thiophene-2-carboxamide] | – | – | – | 114% | 136% | inhibition at 10 µM [3]: 97%

Reference: US7605272B2, “IGF-1R inhibitor” (Kyowa Hakko Kirin Co., Ltd., priority 2005, dated 2009)
